Results published in patent publication US11046686B2, “Thiadiazole IRAK4 compounds” (Gilead Sciences, Inc., priority 2018, dated 2021).
Like-named read-outs stand apart in the source and are kept apart here.

Tests used:
IRAK4 enzyme = IRAK4 enzyme (Homo sapiens (Human), UniProt Q9NWZ3); test: IRAK4 Biochemical Assay (TR-FRET, STK1 KinEASE)
In short: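 IRAK4 (0.75 nM) preincubated 15 min with compound and […] STK1 peptide, then started with 500 μM ATP in HEPES pH 7.0 buffer with MgCl2, DTT, BSA, NP-40; 120 min at room temperature.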

TNFα = test: IRAK4 Monocyte TNFα Cell Based Assay; parameters: species or system human; settings: Homo sapiens, Monocyte, human monocytes
In short: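 Human monocytes (5,000/well) pretreated with compound 1 h at 37 °C (0.1% DMSO final), then stimulated with 50 pg/ml LPS for 4 h. Secreted TNFα measured by TR-FRET two-antibody detection after overnight incubation at room temperature; % control relative to unstimulated and LPS-stimulated wells.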

[1] = compounds 1-32, read-out: IC50 HTRF
[2] = LPS stimulated, compounds 1-32, read-out: EC50 TNF
[3] = second part of Table 2, compounds 33-343, unit inferred, read-out: EC50 MONO TNF HTRF

Chain of IRAK4 enzyme (Q9NWZ3 whole entry): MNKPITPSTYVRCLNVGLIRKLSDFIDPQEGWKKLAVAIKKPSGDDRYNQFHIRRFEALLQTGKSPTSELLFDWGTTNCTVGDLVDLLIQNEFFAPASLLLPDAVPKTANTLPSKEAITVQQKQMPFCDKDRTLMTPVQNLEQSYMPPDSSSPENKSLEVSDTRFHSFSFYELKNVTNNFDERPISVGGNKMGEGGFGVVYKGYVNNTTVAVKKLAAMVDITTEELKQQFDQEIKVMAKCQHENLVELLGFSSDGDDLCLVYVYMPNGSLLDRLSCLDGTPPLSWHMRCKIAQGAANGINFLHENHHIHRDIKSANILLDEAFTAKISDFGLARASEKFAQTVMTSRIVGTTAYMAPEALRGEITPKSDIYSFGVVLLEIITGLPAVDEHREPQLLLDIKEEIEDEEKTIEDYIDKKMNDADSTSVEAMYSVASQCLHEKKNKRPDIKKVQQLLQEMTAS

SMILES | IC50 (IRAK4 enzyme; [1]) | EC50 (TNFα; [2]) | IC50 (IRAK4 enzyme) | EC50 (TNFα; [3])
CC(C)Nc1cc(-c2ccc3cc(C#N)cnn23)ncc1-c1nnc(C(=O)NCCCN2CCCCC2)s1 [Example 11, 5-(6-(3-cyanopyrrolo[1,2-b]pyridazin-7-yl)-4-(isopropylamino)pyridin-3-yl)-N-(3-(piperidin-1-yl)propyl)-1,3,4-thiadiazole-2-carboxamide] | < 1 nM | 1170 nM |  | 
CC(=O)N[C@H]1CCN(C(=O)c2nnc(-c3cnc(-c4ccc5cc(C#N)cnn45)cc3NC(C)C)s2)C1 [Example 12, (S)-N-(1-(5-(6-(3-cyanopyrrolo[1,2-b]pyridazin-7-yl)-4-(isopropylamino)pyridin-3-yl)-1,3,4-thiadiazole-2-carbonyl)pyrrolidin-3-yl)acetamide] | < 1 nM | 9 nM |  | 
CC(=O)N[C@@H]1CCN(C(=O)c2nnc(-c3cnc(-c4ccc5cc(C#N)cnn45)cc3NC(C)C)s2)C1 [Example 13, (R)-N-(1-(5-(6-(3-cyanopyrrolo[1,2-b]pyridazin-7-yl)-4-(isopropylamino)pyridin-3-yl)-1,3,4-thiadiazole-2-carbonyl)pyrrolidin-3-yl)acetamide] | < 1 nM | 23 nM |  | 
CC(C)Nc1cc(-c2ccc3cc(C#N)cnn23)ncc1-c1nnc(C(=O)N2CC[C@H](O)C2)s1 [Example 16, (S)-7-(5-(5-(3-hydroxypyrrolidine-1-carbonyl)-1,3,4-thiadiazol-2-yl)-4-(isopropylamino)pyridin-2-yl)pyrrolo[1,2-b]pyridazine-3-carbonitrile] | < 1 nM | 35 nM |  | 
CC(C)Nc1cc(-c2ccc3cc(C#N)cnn23)ncc1-c1nnc(C(=O)N2CC[C@@H](O)C2)s1 [Example 17, (R)-7-(5-(5-(3-hydroxypyrrolidine-1-carbonyl)-1,3,4-thiadiazol-2-yl)-4-(isopropylamino)pyridin-2-yl)pyrrolo[1,2-b]pyridazine-3-carbonitrile] | 1 nM | 55 nM |  | 
CC(=O)N[C@H]1CC[C@H](c2nnc(-c3cnc(-c4ccc5cc(C#N)cnn45)cc3NCC#N)s2)CC1 [Example 20, N-((1r,4r)-4-(5-(4-((cyanomethyl)amino)-6-(3-cyanopyrrolo[1,2-b]pyridazin-7-yl)pyridin-3-yl)-1,3,4-thiadiazol-2-yl)cyclohexyl)acetamide] | < 1 nM | 6 nM |  | 
CC(=O)N[C@H]1CC[C@H](c2nnc(-c3cnc(-c4ccc5cc(C#N)cnn45)cc3NC3COC3)s2)CC1 [Example 21, N-((1r,4r)-4-(5-(6-(3-cyanopyrrolo[1,2-b]pyridazin-7-yl)-4-(oxetan-3-ylamino)pyridin-3-yl)-1,3,4-thiadiazol-2-yl)cyclohexyl)acetamide] | < 1 nM | 10 nM |  | 
CNc1cc(-c2ccc3cc(C#N)cnn23)ncc1-c1nnc([C@H]2CC[C@H](NC(C)=O)CC2)s1 [Example 22, N-((1r,4r)-4-(5-(6-(3-cyanopyrrolo[1,2-b]pyridazin-7-yl)-4-(methylamino)pyridin-3-yl)-1,3,4-thiadiazol-2-yl)cyclohexyl)acetamide] | < 1 nM | 25 nM |  | 
COC(=O)NC[C@H]1C[C@H](Nc2cc(-c3ccc4cc(C#N)cnn34)ncc2-c2nnc([C@H]3CC[C@H](NC(C)=O)CC3)s2)C1 [Example 23, methyl (((1R,3r)-3-((5-(5-((1r,4R)-4-acetamidocyclohexyl)-1,3,4-thiadiazol-2-yl)-2-(3-cyanopyrrolo[1,2-b]pyridazin-7-yl)pyridin-4-yl)amino)cyclobutyl)methyl)carbamate] | < 1 nM | 6 nM |  | 
CC(C)Nc1cc(-c2ccc3cc(C#N)cnn23)ncc1-c1nncs1 [Example 30, 7-(4-(isopropylamino)-5-(1,3,4-thiadiazol-2-yl)pyridin-2-yl)pyrrolo[1,2-b]pyridazine-3-carbonitrile] | 1 nM | 78 nM |  | 
CC(=O)NC1CN(c2nnc(-c3cnc(-c4ccc5cc(C#N)cnn45)cc3NC(C)C)s2)C1 [Example 33, N-(1-(5-(6-(3-cyanopyrrolo[1,2-b]pyridazin-7-yl)-4-(isopropylamino)pyridin-3-yl)-1,3,4-thiadiazol-2-yl)azetidin-3-yl)acetamide] |  |  | 0.49 nM | 3970 nM
CC(C)Nc1cc(-c2ccc3cc(C#N)cnn23)ncc1-c1nnc(N2CCN3CCOC[C@@H]3C2)s1 [Example 35, (S)-7-(5-(5-(hexahydropyrazino[2,1-c][1,4]oxazin-8(1H)-yl)-1,3,4-thiadiazol-2-yl)-4-(isopropylamino)pyridin-2-yl)pyrrolo[1,2-b]pyridazine-3-carbonitrile] |  |  | 0.87 nM | 78.2 nM
CC(C)Nc1cc(-c2ccc3cc(C#N)cnn23)ncc1-c1nnc(N2CCN3CCOC[C@H]3C2)s1 [Example 36, (R)-7-(5-(5-(hexahydropyrazino[2,1-c][1,4]oxazin-8(1H)-yl)-1,3,4-thiadiazol-2-yl)-4-(isopropylamino)pyridin-2-yl)pyrrolo[1,2-b]pyridazine-3-carbonitrile] |  |  | 0.48 nM | 5 nM
CC(C)Nc1cc(-c2ccc3cc(C#N)cnn23)ncc1-c1nnc(NCC(C)(C)O)s1 [Example 37, 7-(5-(5-((2-hydroxy-2-methylpropyl)amino)-1,3,4-thiadiazol-2-yl)-4-(isopropylamino)pyridin-2-yl)pyrrolo[1,2-b]pyridazine-3-carbonitrile] |  |  | 1000 nM | 10000 nM
CC(=O)N[C@@H]1CCN(C(=O)c2cnc(-c3cnc(-c4ccc5cc(C#N)cnn45)cc3NC(C)C)s2)C1 [Example 40, (R)-N-(1-(2-(6-(3-cyanopyrrolo[1,2-b]pyridazin-7-yl)-4-(isopropylamino)pyridin-3-yl)thiazole-5-carbonyl)pyrrolidin-3-yl)acetamide] |  |  | 3.09 nM | 87.6 nM
CC(=O)NC[C@@H]1CCCN1C(=O)c1nnc(-c2cnc(-c3ccc4cc(C#N)cnn34)cc2NC(C)C)s1 [Example 41, (S)-N-((1-(5-(6-(3-cyanopyrrolo[1,2-b]pyridazin-7-yl)-4-(isopropylamino)pyridin-3-yl)-1,3,4-thiadiazole-2-carbonyl)pyrrolidin-2-yl)methyl)acetamide] |  |  | 1.38 nM | 11.6 nM
COC(=O)N[C@@H]1CCN(C(=O)c2nnc(-c3cnc(-c4ccc5cc(C#N)cnn45)cc3NC(C)C)s2)C1 [Example 44, methyl (R)-(1-(5-(6-(3-cyanopyrrolo[1,2-b]pyridazin-7-yl)-4-(isopropylamino)pyridin-3-yl)-1,3,4-thiadiazole-2-carbonyl)pyrrolidin-3-yl)carbamate] |  |  | 0.53 nM | 27.4 nM

Continued, in another order:

IC50 (IRAK4 enzyme; [1]) | EC50 (TNFα; [2]) | SMILES | IC50 (IRAK4 enzyme) | EC50 (TNFα; [3])
< 1 nM | 79 nM | CC(C)Nc1cc(-c2ccc3cc(C#N)cnn23)ncc1-c1nnc(C(=O)NC[C@@H](F)C(C)(C)O)s1 [Example 14, (R)-5-(6-(3-cyanopyrrolo[1,2-b]pyridazin-7-yl)-4-(isopropylamino)pyridin-3-yl)-N-(2-fluoro-3-hydroxy-3-methylbutyl)-1,3,4-thiadiazole-2-carboxamide] |  | 
< 1 nM | 3390 nM | CNC(=O)c1nnc(-c2cnc(-c3ccc4cc(C#N)cnn34)cc2NC(C)C)s1 [Example 15, 5-(6-(3-cyanopyrrolo[1,2-b]pyridazin-7-yl)-4-(isopropylamino)pyridin-3-yl)-N-methyl-1,3,4-thiadiazole-2-carboxamide] |  | 
1000 nM | > 10000 nM | CC(C)Nc1cc(-c2ccc3cc(C#N)cnn23)ncc1-c1nnc(C(=O)N2CCOCC2)s1 [Example 18, 7-(4-(isopropylamino)-5-(5-(morpholine-4-carbonyl)-1,3,4-thiadiazol-2-yl)pyridin-2-yl)pyrrolo[1,2-b]pyridazine-3-carbonitrile] |  | 
1 nM | 5870 nM | CC(=O)Nc1nnc(-c2cnc(-c3ccc4cc(C#N)cnn34)cc2NC(C)C)s1 [Example 19, N-(5-(6-(3-cyanopyrrolo[1,2-b]pyridazin-7-yl)-4-(isopropylamino)pyridin-3-yl)-1,3,4-thiadiazol-2-yl)acetamide] |  | 
< 1 nM | 1460 nM | Cc1nnc(-c2cnc(-c3ccc4cc(C#N)cnn34)cc2NC(C)C)s1 [Example 25, 7-(4-(isopropylamino)-5-(5-methyl-1,3,4-thiadiazol-2-yl)pyridin-2-yl)pyrrolo[1,2-b]pyridazine-3-carbonitrile] |  | 
1 nM | 305 nM | CC(C)Nc1cc(-c2ccc3cc(C#N)cnn23)ncc1-c1nnc(CCN)s1 [Example 26, 7-(5-(5-(2-aminoethyl)-1,3,4-thiadiazol-2-yl)-4-(isopropylamino)pyridin-2-yl)pyrrolo[1,2-b]pyridazine-3-carbonitrile] |  | 
1 nM | 67 nM | CC(C)Nc1cc(-c2ccc3cc(C#N)cnn23)ncc1-c1nnc(NC[C@@H](F)C(C)(C)O)s1 [Example 27, (R)-7-(5-(5-((2-fluoro-3-hydroxy-3-methylbutyl)amino)-1,3,4-thiadiazol-2-yl)-4-(isopropylamino)pyridin-2-yl)pyrrolo[1,2-b]pyridazine-3-carbonitrile] |  | 
1.7 nM | 6340 nM | CC(C)Nc1cc(-c2ccc3cc(C#N)cnn23)ncc1-c1nnc(-n2cccc2)s1 [Example 28, 7-(5-(5-(1H-pyrrol-1-yl)-1,3,4-thiadiazol-2-yl)-4-(isopropylamino)pyridin-2-yl)pyrrolo[1,2-b]pyridazine-3-carbonitrile] |  | 
< 1 nM | 5 nM | CC(C)Nc1cc(-c2ccc3cc(C#N)cnn23)ncc1-c1nnc(CCC(C)(C)O)s1 [Example 31, 7-(5-(5-(3-hydroxy-3-methylbutyl)-1,3,4-thiadiazol-2-yl)-4-(isopropylamino)pyridin-2-yl)pyrrolo[1,2-b]pyridazine-3-carbonitrile] |  | 
